In US12582593B2, “Oral care compositions for gum health” (The Procter & Gamble Company, priority 2021, dated 2026):

Tested on: Primary Human Gingival Fibroblast (HGF)
Assay: In-vitro 2D tissue damage assay via Collagen-1 marker (Collagen-1 ELISA after TBHP challenge)
Format: cell-based
Settings: 0.5% gel dilution 24 hr, 50 μM TBHP 1 hr, 24 hr in complete media; supernatant
Description: In vitro gingival 2D gingival fibroblast tissue damage/prevention was used to assess the effects of treatment with Inventive Compositions and Comparative compositions on collagen-1 ELISA assay.
The obtained tissues were kept in cold Dulbecco's modified Eagle's medium (DMEM, Gibco) with 10% fetal bovine serum and a cocktail of antibiotics and antimycotics. Next, the tissues were minced with a blade and spun down at 4° C. and 200×g for 5-10 minutes to separate and wash the pellets. Resuspended tissue explants were laid onto a 60 mm dish and kept in an incubator. Every 3-5 days during culture, fibroblasts grown from tissue explants were washed and continued under passage using 0.2% trypsin. Proliferation tests and cell damage recovery experiments were performed when the fibroblasts reached passages 3-10.
Primary Human gingival fibroblast (HGF) cell was maintained in a 37° C. incubator with 5% CO2 saturation. Dulbecco's modified Eagle's medium (DMEM, Gibco) containing 10% fetal calf serum, 1% penicillin-streptomycin was used as the complete culture medium, which was changed every 2-3 days.
1.8×10^5 Cells were seeded in a 6-well plate and cultured with complete medium in at 37° C. and 5% CO2 for 24 hr. […] The supernatant of cell culture was collected and analysed by Collagen-1 ELISA kit (CUSABIO).

TGF-B [Positive control (TGF-B)] showed a Collagen-1 of 155.59 ng/mL.
